Measurements taken from patent US20250369975A1, “METHOD FOR DETECTING TRANSTHYRETIN TETRAMER, AND METHOD FOR EVALUATING STABILITY” (SYSMEX CORPORATION, priority 2024, published 2025).
Where two headings read alike, the source gives them in different places.

Legend:
[1] = target: T1, TTR tetramer (recombinant human transthyretin WT, T119M, V30M) (Homo sapiens, UniProt P02766, V50M); format: binding; settings: probe solution 0.2 μM; FIG. 18A
T1 construct: purchased AlexoTech T-500-10 (WT); T-515-10 (T119M); T-505-10 (V30M)

[2] = system: TTR tetramer (recombinant human transthyretin WT, T119M, V30M); format: binding; settings: probe solution 0.2 μM mixed with sample; FIG. 18A-B
[3] = target: T2, TTR tetramer (recombinant human transthyretin WT, T119M, V30M) (Homo sapiens, UniProt P02766, T139M); format: binding; settings: probe solution 0.2 μM; FIG. 18A
T2 construct: purchased AlexoTech T-500-10 (WT); T-515-10 (T119M); T-505-10 (V30M)

[4] = system: TTR tetramer (recombinant human transthyretin WT, T119M, V30M); format: binding; settings: probe solution 10 μM; recombinant TTR 100 ng/mL; FIG. 14A-D
[5] = target: T1, TTR tetramer (recombinant human transthyretin WT, T119M, V30M); format: binding; settings: probe solution 0.3 μM immobilized; FIG. 16A
[6] = system: TTR tetramer (recombinant human transthyretin WT, T119M, V30M); format: binding; settings: probe solution 0.3 μM immobilized on solid phase; recombinant TTR 100 ng/mL; FIG. 16A-B
[7] = target: T2, TTR tetramer (recombinant human transthyretin WT, T119M, V30M); format: binding; settings: probe solution 0.3 μM immobilized; FIG. 16A
[8] = target: T1, TTR tetramer (recombinant human transthyretin WT, T119M, V30M); format: binding; settings: probe solution 10 μM; recombinant TTR 100 ng/mL; FIG. 14A
[9] = target: T2, TTR tetramer (recombinant human transthyretin WT, T119M, V30M); format: binding; settings: probe solution 10 μM; recombinant TTR 100 ng/mL; FIG. 14A
[10] = Comparative Example 2: 48-hour urea treatment, then sandwich ELISA (TTR 4mer %); format: physicochemical, human; settings: urea 7.2 M, 25° C., Dunnett's test, FIG. 24A
Protocol: The recombinant TTR of the wild-type (WT), the stabilized variant (Ti19M), and the destabilized variant (V30M) as in Example 1 were used as the recombinant TTR. These recombinant TTRs were diluted with 1% BSA/PBS, to prepare a sample containing 16 µg/mL of each recombinant TTR. Sera obtained from patients with atrial fibrillation (n=26), wild-type ATTR patients (n=18), and ATTR patients with destabilized mutation (A36D) (n=2) were diluted 10 times with 1% BSA/PBS, to prepare various serum samples. A calibrator was prepared in the same manner as in Comparative Example 1.
As the detection antibody and the labeling substance, a biotin-labeled antibody solution and an ALP solution were prepared in the same manner as in Comparative Example 1. An anti-TTR antibody solution was prepared as the capture antibody in the same manner as in Comparative Example 1. […]
Each sample was measured by sandwich ELISA in the same manner as in (3.2) of Comparative Example 1. The calibrator was measured in the same manner. A calibration curve was prepared from the measured values of the calibrators, and the TTR level of each sample was acquired with use of the calibration curve. TTR 4 mer % of the sample after the urea treatment was calculated from the following calculation formula, using the TTR levels of the sample after the urea treatment and the sample without the urea treatment. […]

Compound: O=C(CCCCC1SCC2NC(=O)NC21)NCCOCCOCCOCCOCCOCCOCCOCCOCCC(=O)Nc1ccc(/C=C/c2cc(Br)c(O)c(Br)c2)cc1 (stereo not shown) [Probe C5, Biotin-PEG8-Stilbene Derivative]
- signal measured value of V30M sample relative to WT sample [1]: lower than the signal measured value of WT
- chemiluminescence signal measured values of WT, T119M and V30M samples versus blank [2]: higher than the signal measured value of the blank
- signal measured value of T119M sample relative to WT sample [3]: higher than the signal measured value of WT
- chemiluminescence signal measured values of WT, T119M and V30M samples versus blank [4]: results similar to those of FIG. 14 A
- signal measured value of V30M sample relative to WT sample [5]: lower than the signal measured value of WT
- chemiluminescence signal measured values of WT, T119M and V30M samples versus blank [6]: higher than the signal measured value of the blank
- signal measured value of T119M sample relative to WT sample [7]: higher than the signal measured value of WT

Compound: Biotin-PEG8-Thyroxine [Probe C1]
- signal measured value of V30M sample relative to WT sample [8]: lower than the signal measured value of WT
- chemiluminescence signal measured values of WT, T119M and V30M samples versus blank [4]: higher than the signal measured value of the blank
- signal measured value of T119M sample relative to WT sample [9]: higher than the signal measured value of WT

Compound: biotin-PEG12-thyroxine [Probe C2]
- chemiluminescence signal measured values of WT, T119M and V30M samples versus blank [4]: results similar to those of FIG. 14 A

Compound: transthyretin (T119M) human, recombinant [Probe T119M]
- TTR 4mer % relative to the sample containing wild-type TTR [10]: significantly higher

Compound: transthyretin (V30M) human [Probe V30M]
- TTR 4mer % relative to the sample containing wild-type TTR [10]: significantly lower
